Reference: article PMC9299640, “Incorporation of β‐Alanine in Cu(II) ATCUN Peptide Complexes Increases ROS Levels, DNA Cleavage and Antiproliferative Activity” (Chemistry (Weinheim an Der Bergstrasse, Germany), 2021)
Where a SMILES comes first, the peptide text is derived from it. Where no end group is shown, it is not given here. [ ]: non-standard residue; d: D form. βAla = NCCC(=O)O

Experiments:
[1] = Potentiometric titration of peptides with CuCl2: Cu(II) binding constants and competitivity index at pH 7.4; assay type: physicochemical; conditions: 25 °C, I=0.1 (KNO3); for CI7.4 (competitivity index, log K CuZ): calculated at pH 7.4 for 1 mM Cu(II), peptide L and virtual competitive ligand Z from potentiometric stability constants; for log *K4N (protonation-corrected stability constant of Cu(II) 4N complex): log β{CuHn-4L} – log β{HnL}; for log β CuH-2L / log β CuH-3L / log β CuL / log β CuH-1L / log β CuHL: 1 mM peptide, Cu:peptide 1:1, 1:2, 1:3
Description: (§1) Key factors for the investigation of the biological activity of metal complexes are the complex stability and the detection of the active species at a physiological pH value of 7.4.[27] Thus, potentiometric titration experiments of peptides a–g (b) alone and in the presence of CuCl2 (logarithmic protonation (log β) and protonation‐corrected Cu(II) binding constants (log *K)) and pH‐metric UV/VIS and CD spectroscopic measurements of 1–7 (2 [26]) were carried out (S‐5).
(§2) S-5 Protonation and complex stability constants
(§3) All bioanalytical experiments (DNA cleavage, DNA binding and ROS detection studies) and cell studies (cytotoxicity and cellular uptake) were carried out at pH 7.4. To characterize the speciation of the ATCUN metallopeptides at this pH, potentiometric titrations in combination with UV/VIS and CD spectroscopy were carried out for 1 and 3-7.
(§4) S-5.1 Potentiometry, UV/VIS and circular dichroism (CD) spectroscopy […]
(§5) Potentiometric titrations were performed on a 907 Titrando Automatic Titrator (Metrohm) using a Biotrode combined glass electrode (Metrohm), calibrated daily by nitric acid titrations with the use of standardized 100 mM NaOH (carbon dioxide-free) as a […]
Stock solution preparation:
Stock solutions of peptides a and c–g for UV/VIS and CD experiments were prepared by dissolving given amounts of peptides in carbon dioxide-free Milli-Q® water.
Samples (1.5 mL volume, 1 mM peptide) were prepared in 4 mM HNO3/96 mM KNO3 solution. To calculate ligand (peptide) concentrations and their protonation constants, at least three consecutive potentiometric titrations were performed.
Three samples (1.5 mL) of 1 mM peptide and CuCl2 with Cu : peptide ratios of 1:1, 1:2 and 1:3 were prepared in 4 mM HNO3/96 mM KNO3. Each sample was titrated separately using a standardized 100 mM NaOH solution. The pH range for all potentiometric […]
All ligand and complex titrations were performed under argon at 25 °C. The data was analyzed using the SUPERQUAD and HYPERQUAD programs.
For the determination of Cu(II) stability constants, peptides a and c–g UV/VIS spectra were recorded in a range of 250–900 nm with a scan resolution of 1 nm, and a scan speed of 0.5 s/nm on a Lambda 950 UV/VIS/NIR spectrophotometer (PerkinElmer). The samples of 1 mM peptide/0.8 mM CuCl2 were prepared in 1 cm path length quartz cuvettes (Hellma) and titrated with small amounts of concentrated NaOH solution. Usually the pH-metric titration spanned from pH 2.9 to pH 12.5. […]
(§6) Table S5. Logarithmic protonation and Cu(II) binding constants (log β and pK) of peptides a-g (b not measured), determined by potentiometry at 25 °C and I=0.1 (KNO3), and competitivity index (CI) values calculated at pH 7.4 for 1 mM Cu(II) and peptides based on respective stability constants.
(§7) Statistical errors on the last digits of log β values, provided by HYPERQUAD, are given in parentheses. […]
(§8) log β pK log β pK log β pK log β pK log β pK log β pK
CuH3L - - - - - - - - - -
CI: Competitivity index calculated for pH 7.4 and peptide L, Cu(II) and Z concentrations of 0.001 M. CI is log KCuZ fulfilling the condition Σijk([CuiHjLk]=[CuZ].3 log *K4N is a protonation-corrected stability constant allowing to compare peptides with different protonation states forming the same type of complexes In general log*KxN, where x stand for number of coordinated nitrogens can be described by log *KxN = log β{CuHn-xL} – log β{HnL} HnL stands for the protonation of coordinating histidine (in position 3 from N-terminus in case of ATCUN motifs) […]
Peptides can be compared easily between each other using both protonation-corrected stability constant (log *K4N) and Competitivity Index at pH 7.4 (CI7.4):
(§9) For log *K4N, the higher the number (less negative value) the higher stability of Cu(II) complexes (only relative meaning – no interpretation of concentrations of species possible).
For CI7.4, the higher the number the higher the stability. […]

[2] = Potentiometric titration of peptides: protonation constants; assay type: physicochemical; conditions: protonation constant, potentiometry, 1 mM peptide, error on last digit in parentheses; for log β H2L / log β HL / log β H3L: 25 °C, I=0.1 (KNO3)
Description: as §1, §2, §3, §4, §5
Stock solution preparation: […]
Samples (1.5 mL volume, 1 mM peptide) were prepared in 4 mM HNO3/96 mM KNO3 solution. To calculate ligand (peptide) concentrations and their protonation constants, at least three consecutive potentiometric titrations were performed. […]
The pH range for all potentiometric
All ligand and complex titrations were performed under argon at 25 °C. The data was analyzed using the SUPERQUAD and HYPERQUAD programs. […]
as §6, §7, §8
CuH3L - - - - - - - - - - […]
as §9
For CI7.4, the higher the number the higher the stability. CI is the affinity constant for the imaginary CuZ complex which is equivalent in strength to the probed complex/set of complexes. The advantage of CI is that its unit is M-1, and can be compared with log K values for real complexes.

[3] = potentiometry, error on last digit in parentheses

Molecule	pK CuH-2L ([1]; Cu(II) species, potentiometry)	pK CuH-3L ([1]; Cu(II) species, potentiometry)	CI7.4 (competitivity index, log K CuZ) [1]	log *K4N (protonation-corrected stability constant of Cu(II) 4N complex) ([1]; potentiometry)	log β CuH-2L [1, 3]	log β CuH-3L [1, 3]	log β CuL [1, 3]	log β H2L [2]	log β HL [2]	pK CuH-1L ([1]; Cu(II) species, potentiometry)	pK CuL ([1]; Cu(II) species, potentiometry)	log β CuH-1L [1, 3]	log β CuH2L ([1]; potentiometry, 4 mM HNO3/96 mM KNO3, 1 mM peptide, Cu:peptide 1:1, 1:2, 1:3, pH 2.7-11.6, argon, error on last digit in parentheses)	log β H4L ([2]; 4 mM HNO3/96 mM KNO3, 25 °C, I=0.1, argon, at least three titrations)	log β H3L [2]	log β CuHL [1, 3]
NCC(=O)NCCC(=O)N[C@@H](Cc1c[nH]cn1)C(=O)NCC(=O)N[C@@H](CO)C(=O)N[C@@H](CO)C(N)=O [Peptide c] (H-G[βAla]HGSS-NH2)	5.65	10.4	9.915	-18.426	-4.160(5)	-14.560(8)	7.137(5)	14.266(3)	8.001(2)	–	–	–	–	–	–	–
NCCCC[C@H](NC(=O)[C@H](Cc1c[nH]cn1)NC(=O)CCNC(=O)[C@@H](N)CCCCN)C(=O)N[C@@H](CO)C(=O)N[C@@H](CO)C(N)=O [d] (H-K[βAla]HKSS-NH2)	10.41	–	10.31	-17.537	-4.068(6)	–	16.338(4)	20.563(2)	10.656(3)	10.00	5.13	6.337(8)	26.604(9)	33.875(4)	27.860(3)	–
NC(=O)[C@H](CO)NC(=O)[C@H](CO)NC(=O)[C@H](Cc1c[nH]c2ccccc12)NC(=O)[C@H](Cc1c[nH]cn1)NC(=O)CCNC(=O)[C@@H](N)Cc1c[nH]c2ccccc12 [e] (H-W[βAla]HWSS-NH2)	4.92	11.58	11.28	-16.804	-3.104(3)	-14.683(9)	6.743(7)	13.700(3)	7.584(3)	–	–	–	–	–	–	–
GGHGSS-NH2 [a]	–	11.79	13.61	-14.747	-0.587(5)	-12.38(2)	–	14.160(2)	7.853(1)	–	–	–	–	–	–	–

More lines, now with the values ahead:

pK CuH-2L ([1]; Cu(II) species, potentiometry)	pK CuH-3L ([1]; Cu(II) species, potentiometry)	CI7.4 (competitivity index, log K CuZ) [1]	log *K4N (protonation-corrected stability constant of Cu(II) 4N complex) ([1]; potentiometry)	log β CuH-2L [1, 3]	log β CuH-3L [1, 3]	log β CuL [1, 3]	log β H2L [2]	log β HL [2]	pK CuH-1L ([1]; Cu(II) species, potentiometry)	pK CuL ([1]; Cu(II) species, potentiometry)	log β CuH-1L [1, 3]	log β CuH2L ([1]; potentiometry, 4 mM HNO3/96 mM KNO3, 1 mM peptide, Cu:peptide 1:1, 1:2, 1:3, pH 2.7-11.6, argon, error on last digit in parentheses)	log β H4L ([2]; 4 mM HNO3/96 mM KNO3, 25 °C, I=0.1, argon, at least three titrations)	log β H3L [2]	log β CuHL [1, 3]	Molecule
10.12	11.17	10.52	-17.435	-3.840(7)	-15.007(8)	–	17.632(4)	10.262(3)	5.06	–	6.280(3)	–	–	23.715(5)	16.406(9)	NCCCC[C@H](N)C(=O)NCCC(=O)N[C@@H](Cc1c[nH]cn1)C(=O)N[C@@H](Cc1c[nH]c2ccccc12)C(=O)N[C@@H](CO)C(=O)N[C@@H](CO)C(N)=O [f] (H-K[βAla]HWSS-NH2)
10.10	–	11.29	-16.738	-2.987(9)	–	–	17.755(5)	10.255(3)	4.82	–	7.108(5)	–	–	23.846(5)	16.75(1)	NCCCC[C@H](NC(=O)[C@H](Cc1c[nH]cn1)NC(=O)CCNC(=O)[C@@H](N)Cc1c[nH]c2ccccc12)C(=O)N[C@@H](CO)C(=O)N[C@@H](CO)C(N)=O [g] (H-W[βAla]HKSS-NH2)
